Common to all, as to format: biochemical
The target of one experiment is T1, human Src enzyme (Homo sapiens, UniProt P12931).
T1 construct: purchased Carna Biosciences, Inc. 08-173
Kind of experiment: Src enzyme inhibitory activity (time-resolved fluorometry, biotinylated peptide phosphorylation). The following applies: read-out: SRC_IC50. The method in brief:
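Compounds were tested for blocking tyrosine phosphorylation of a biotinylated peptide substrate by recombinant human Src. Phosphorylated product was quantified by time-resolved fluorometry using europium cryptate and XL665 conjugates, and IC50 was calculated against the compound-free control.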

The next experiment concerns the target T2, human Yes1 enzyme (Homo sapiens, UniProt P07947).
T2 construct: made in house
Kind of experiment: Yes1 enzyme inhibitory activity (time-resolved fluorometry, biotinylated peptide phosphorylation). The note with it: read-out: YES_IC50. The gist of the method: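 Inhibition was expressed against a compound-free control to give IC50, using TR-FRET read-out (Eu-cryptate anti-pTyr antibody, streptavidin-XL665).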

The target in a further experiment is T3, human Lck enzyme (Homo sapiens, UniProt P06239).
T3 construct: purchased Carna Biosciences, Inc. 08-170
T3 sequence (P06239 whole entry): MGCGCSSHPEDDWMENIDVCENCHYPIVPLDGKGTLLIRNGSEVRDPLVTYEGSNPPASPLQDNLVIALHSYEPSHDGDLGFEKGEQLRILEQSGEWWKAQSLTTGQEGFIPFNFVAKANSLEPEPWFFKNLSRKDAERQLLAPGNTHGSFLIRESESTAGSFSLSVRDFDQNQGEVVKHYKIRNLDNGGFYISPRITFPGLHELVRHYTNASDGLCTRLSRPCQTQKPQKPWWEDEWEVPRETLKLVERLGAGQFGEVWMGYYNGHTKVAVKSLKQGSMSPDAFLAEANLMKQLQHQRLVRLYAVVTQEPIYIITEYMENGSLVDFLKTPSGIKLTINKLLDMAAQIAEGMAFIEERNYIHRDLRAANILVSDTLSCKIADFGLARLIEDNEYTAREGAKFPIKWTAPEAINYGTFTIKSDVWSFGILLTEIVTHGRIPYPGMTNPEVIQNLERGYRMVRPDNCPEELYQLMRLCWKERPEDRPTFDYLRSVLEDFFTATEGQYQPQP
Kind of experiment: Lck enzyme inhibitory activity (time-resolved fluorometry, biotinylated peptide phosphorylation). The following applies: read-out: LCK_IC50. The gist of the method: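 Readout pairs a europium cryptate-labelled anti-phosphotyrosine antibody with XL665-streptavidin, measured by time-resolved fluorescence. IC50 derived from percent inhibition against untreated controls.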

T1 sequence (P12931 whole entry): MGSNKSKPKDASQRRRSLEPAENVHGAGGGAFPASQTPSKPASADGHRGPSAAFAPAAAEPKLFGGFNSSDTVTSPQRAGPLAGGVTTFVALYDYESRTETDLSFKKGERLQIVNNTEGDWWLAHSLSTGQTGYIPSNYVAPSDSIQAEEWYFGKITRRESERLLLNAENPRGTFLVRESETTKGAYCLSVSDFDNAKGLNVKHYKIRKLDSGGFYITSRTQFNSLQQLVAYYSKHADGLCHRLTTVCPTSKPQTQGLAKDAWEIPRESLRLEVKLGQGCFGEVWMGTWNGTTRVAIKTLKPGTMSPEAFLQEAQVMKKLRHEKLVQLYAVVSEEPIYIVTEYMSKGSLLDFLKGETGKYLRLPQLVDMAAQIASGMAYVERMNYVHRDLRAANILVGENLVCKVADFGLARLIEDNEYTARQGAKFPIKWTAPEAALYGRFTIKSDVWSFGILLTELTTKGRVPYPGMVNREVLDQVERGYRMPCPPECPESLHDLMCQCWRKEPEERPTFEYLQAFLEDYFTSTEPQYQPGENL
T2 sequence (P07947 whole entry): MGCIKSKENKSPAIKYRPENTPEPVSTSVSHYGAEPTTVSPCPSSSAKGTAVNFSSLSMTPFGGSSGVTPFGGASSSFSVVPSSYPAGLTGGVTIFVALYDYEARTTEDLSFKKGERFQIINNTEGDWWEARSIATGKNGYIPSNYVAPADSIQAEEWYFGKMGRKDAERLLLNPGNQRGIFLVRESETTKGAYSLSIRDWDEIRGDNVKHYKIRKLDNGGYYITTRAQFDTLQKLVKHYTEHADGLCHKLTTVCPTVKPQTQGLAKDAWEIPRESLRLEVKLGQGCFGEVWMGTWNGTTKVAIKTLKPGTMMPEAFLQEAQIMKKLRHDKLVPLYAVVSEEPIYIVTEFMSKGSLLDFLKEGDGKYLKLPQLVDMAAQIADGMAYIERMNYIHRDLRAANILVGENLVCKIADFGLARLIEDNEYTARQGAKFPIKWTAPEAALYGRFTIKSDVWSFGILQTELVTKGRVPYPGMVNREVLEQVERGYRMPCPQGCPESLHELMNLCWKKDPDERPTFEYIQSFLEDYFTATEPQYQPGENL

Regarding `CC(=O)N1CCC(c2cc3[nH]c(C(=O)c4cnn(-c5c(C)cc(Oc6ccccc6F)cc5F)c4N)cc3cc2C)CC1` [Example 5-1-138, 1-[4-[2-[5-amino-1-[2-fluoro-4-(2-fluorophenoxy)-6-methylphenyl]pyrazole-4-carbonyl]-5-methyl-1H-indol-6-yl]piperidin-1-yl] ethanone], the IC50 on human Src enzyme is 68 nM; on human Yes1 enzyme, 3.1 nM; at human Lck enzyme, 42 nM.

In the case of `CC(=O)N1CCC(c2cc3[nH]c(C(=O)c4cnn(-c5cnc(Oc6c(F)cccc6F)cc5C)c4N)cc3cc2C)CC1` [Example 5-1-139, 1-[4-[2-[5-amino-1-[6-(2,6-difluorophenoxy)-4-methylpyridin-3-yl]pyrazole-4-carbonyl]-5-methyl-1H-indol-6-yl]piperidin-1-yl]ethanone], the IC50 on human Src enzyme was found to be 23 nM; at human Yes1 enzyme, 1.8 nM; on human Lck enzyme, 25 nM.

Consider `Cc1cc2cc(C(=O)c3cnn(-c4c(C)cc(Oc5c(F)cccc5F)cc4F)c3N)[nH]c2cc1NS(C)(=O)=O` [Example 5-1-140, N-[2-[5-amino-1-[4-(2,6-difluorophenoxy)-2-fluoro-6-methylphenyl]pyrazole-4-carbonyl]-5-methyl-1H-indol-6-yl]methanesulfonamide], for which the values for the IC50 on human Src enzyme, at human Yes1 enzyme and on human Lck enzyme were 48 nM, 2.8 nM and 24 nM, respectively.

As for `CCc1cc2cc(C(=O)c3cnn(-c4cnc(Oc5c(F)cccc5F)cc4C)c3N)[nH]c2cc1NS(C)(=O)=O` [Example 5-1-141, N-[2-[5-amino-1-[6-(2,6-difluorophenoxy)-4-methylpyridin-3-yl]pyrazole-4-carbonyl]-5-ethyl-1H-indol-6-yl]methanesulfonamide], the IC50 at human Src enzyme was 75 nM; on human Yes1 enzyme, 2.4 nM; on human Lck enzyme, 27 nM.

Take `Cc1cc2cc(C(=O)c3cnn(-c4c(C)cc(Oc5c(F)cccc5Cl)cc4F)c3N)[nH]c2cc1NS(C)(=O)=O` [Example 5-1-142, N-[2-[5-amino-1-[4-(2-chloro-6-fluorophenoxy)-2-fluoro-6-methylphenyl]pyrazole-4-carbonyl]-5-methyl-1H-indol-6-yl] methanesulfonamide]: the IC50 was 99 nM at human Src enzyme, 5.6 nM on human Yes1 enzyme and 52 nM at human Lck enzyme.

`COc1cc2cc(C(=O)c3cnn(-c4cnc(Oc5c(F)cccc5F)cc4C)c3N)[nH]c2cc1NS(=O)(=O)CC(=O)N1CCOCC1` [Example 5-1-143, N-[2-[5-amino-1-[6-(2,6-difluorophenoxy)-4-methylpyridin-3-yl]pyrazole-4-carbonyl]-5-methoxy-1H-indol-6-yl]-2-morpholin-4-yl-2-oxoethanesulfonamide]: the IC50 was determined as 15 nM on human Src enzyme, 0.59 nM at human Yes1 enzyme and 11 nM at human Lck enzyme.

With `Cc1cc2cc(C(=O)c3cnn(-c4cnc(Oc5c(F)cccc5F)cc4C)c3N)[nH]c2cc1C1CCN(S(=O)(=O)C2CC2)CC1` [Example 5-1-144, [5-amino-1-[6-(2,6-difluorophenoxy)-4-methylpyridin-3-yl]pyrazol-4-yl]-[6-(1-cyclopropylsulfonylpiperidin-4-yl)-5-methyl-1H-indol-2-yl]methanone], the values for the IC50 at human Src enzyme, on human Yes1 enzyme and on human Lck enzyme were 81 nM, 5.7 nM and 76 nM, respectively.

As for `COc1cc2cc(C(=O)c3cnn(-c4cnc(Oc5ccccc5F)cc4C)c3N)[nH]c2cc1Br` [Example 5-1-145, [5-amino-1-[6-(2-fluorophenoxy)-4-methylpyridin-3-yl]pyrazol-4-yl]-(6-bromo-5-methoxy-1H-indol-2-yl)methanone], the IC50 at human Src enzyme came out at 16 nM; at human Yes1 enzyme, 1.6 nM; at human Lck enzyme, 8.2 nM.

In the case of `Cc1cc(Oc2ccccc2F)ccc1-n1ncc(C(=O)c2cc3cc(OC4CCN(C(C)C)CC4)c(Br)cc3[nH]2)c1N` [Example 5-1-146, [5-amino-1-[4-(2-fluorophenoxy)-2-methylphenyl]pyrazol-4-yl]-[6-bromo-5-(1-propan-2-ylpiperidin-4-yl)oxy-1H-indol-2-yl] methanone], the IC50 at human Src enzyme was found to be 2.2 nM; on human Yes1 enzyme, 0.27 nM; on human Lck enzyme, 5.3 nM.

On to `Cc1cc(Oc2ccccc2F)ccc1-n1ncc(C(=O)c2cc3cc(N4CCOCC4)c(Br)cc3[nH]2)c1N` [Example 5-1-147, [5-amino-1-[4-(2-fluorophenoxy)-2-methylphenyl]pyrazol-4-yl]-(6-bromo-5-morpholin-4-yl-1H-indol-2-yl)methanone], for which the IC50 on human Src enzyme was determined as 5.1 nM; at human Yes1 enzyme, 0.57 nM; at human Lck enzyme, 12 nM.

On to `Cc1cc(-n2ncc(C(=O)c3cc4cc(OC5CCN(C(C)C)CC5)c(Br)cc4[nH]3)c2N)ccc1Oc1ccccc1F` [Example 5-1-148, [5-amino-1-[4-(2-fluorophenoxy)-3-methylphenyl]pyrazol-4-yl]-[6-bromo-5-(1-propan-2-ylpiperidin-4-yl)oxy-1H-indol-2-yl] methanone], for which the IC50 on human Src enzyme worked out at 180 nM; at human Yes1 enzyme, 0.57 nM; at human Lck enzyme, 47 nM.

On to `Cc1cc(Oc2c(F)cccc2F)ncc1-n1ncc(C(=O)c2cc3cc(OC(F)F)c(Br)cc3[nH]2)c1N` [Example 5-1-149, [5-amino-1-[6-(2,6-difluorophenoxy)-4-methylpyridin-3-yl]pyrazol-4-yl]-[6-bromo-5-(difluoromethoxy)-1H-indol-2-yl]methanone], for which the values for the IC50 on human Src enzyme, at human Yes1 enzyme and on human Lck enzyme were 57 nM, 5 nM and 43 nM, respectively.

For `Cc1cc(-n2ncc(C(=O)c3cc4cc(N5CCOCC5)c(Br)cc4[nH]3)c2N)ccc1Oc1ccccc1F` [Example 5-1-151, [5-amino-1-[4-(2-fluorophenoxy)-3-methylphenyl]pyrazol-4-yl]-(6-bromo-5-morpholin-4-yl-1H-indol-2-yl)methanone], the IC50 at human Src enzyme is 600 nM; at human Yes1 enzyme it was 2.9 nM; on human Lck enzyme it was 80 nM.

Take `Cc1cc(Oc2ccccc2F)ncc1-n1ncc(C(=O)c2cc3cc(OC4CCN(C(C)C)CC4)c(Br)cc3[nH]2)c1N` [Example 5-1-153, [5-amino-1-[6-(2-fluorophenoxy)-4-methylpyridin-3-yl]pyrazol-4-yl]-[6-bromo-5-(1-propan-2-ylpiperidin-4-yl)oxy-1H-indol-2-yl] methanone]: the IC50 on human Src enzyme is 7.9 nM; on human Yes1 enzyme it was 0.53 nM; on human Lck enzyme it was 3 nM.

For the molecule `Cc1cc(Oc2ccccc2F)cc(F)c1-n1ncc(C(=O)c2cc3cc(OC4CCN(C(C)C)CC4)c(Br)cc3[nH]2)c1N` [Example 5-1-154, [5-amino-1-[2-fluoro-4-(2-fluorophenoxy)-6-methylphenyl]pyrazol-4-yl]-[6-bromo-5-(1-propan-2-ylpipendin-4-yl)oxy-1H-indol-2-yl] methanone], the IC50 at human Src enzyme stood at 11 nM; on human Yes1 enzyme, 0.67 nM; on human Lck enzyme it was 4.3 nM.

As for `Cc1cc(Oc2c(F)cccc2F)ncc1-n1ncc(C(=O)c2cc3cc(N4CCOCC4)c(Br)cc3[nH]2)c1N` [Example 5-1-155, [5-amino-1-[6-(2,6-difluorophenoxy)-4-methylpyridin-3-yl]pyrazol-4-yl]-(6-bromo-5-morpholin-4-yl-1H-indol-2-yl)methanone], the IC50 on human Src enzyme amounted to 22 nM; at human Yes1 enzyme, 1.6 nM; on human Lck enzyme, 12 nM.

Consider `Cc1cc(-n2ncc(C(=O)c3cc4cc(OC5CCN(C(C)C)CC5)c(NS(C)(=O)=O)cc4[nH]3)c2N)ccc1Oc1ccccc1F` [Example 5-1-156, N-(2-(5-amino-1-(4-(2-fluorophenoxy)-3-methylphenyl)-1H-pyrazole-4-carbonyl)-5-((1-isopropylpiperidin-4-yl)oxy)-1H-indol-6-yl)methanesulfonamide], for which the IC50 at human Src enzyme is 1100 nM; on human Yes1 enzyme, 1.6 nM; at human Lck enzyme it was 64 nM.

In the case of `Cc1cc(-n2ncc(C(=O)c3cc4cc(N5CCOCC5)c(NS(C)(=O)=O)cc4[nH]3)c2N)ccc1Oc1ccccc1F` [Example 5-1-157, N-[2-[5-amino-1-[4-(2-fluorophenoxy)-3-methylphenyl]pyrazole-4-carbonyl]-5-morpholin-4-yl-1H-indol-6-yl] methanesulfonamide], the IC50 at human Src enzyme stood at 1100 nM; on human Yes1 enzyme, 1.9 nM; at human Lck enzyme it was 480 nM.

`Cc1cc(-n2ncc(C(=O)c3cc4cc(N5CCOCC5)c(N5CCN(S(C)(=O)=O)CC5)cc4[nH]3)c2N)ccc1Oc1ccccc1F` [Example 5-1-158, [5-amino-1-[4-(2-fluorophenoxy)-3-methylphenyl]pyrazol-4-yl]-[6-(4-methylsulfonylpiperazin-1-yl)-5-morpholin-4-yl-1H-indol-2-yl]methanone]: the IC50 at human Src enzyme turned out to be 76 nM; on human Yes1 enzyme it was 0.9 nM; at human Lck enzyme, 42 nM.

In the case of `Cc1cc(-n2ncc(C(=O)c3cc4cc(N5CCOCC5)c(N5CCOCC5)cc4[nH]3)c2N)ccc1Oc1ccccc1F` [Example 5-1-159, [5-amino-1-[4-(2-fluorophenoxy)-3-methylphenyl]pyrazol-4-yl]-(5,6-dimorpholin-4-yl-1H-indol-2-yl)methanone], the figures for the IC50 on human Src enzyme, on human Yes1 enzyme and at human Lck enzyme were 96 nM, 1.4 nM and 39 nM, respectively.

Turning to `Cc1cc(-n2ncc(C(=O)c3cc4cc(N5CCOCC5)c(N5CCOC5=O)cc4[nH]3)c2N)ccc1Oc1ccccc1F` [Example 5-1-160, 3-[2-[5-amino-1-[4-(2-fluorophenoxy)-3-methylphenyl]pyrazole-4-carbonyl]-5-morpholin-4-yl-1H-indol-6-yl]-1,3-oxazolidin-2-one], the IC50 at human Src enzyme worked out at 230 nM; at human Yes1 enzyme, 0.71 nM; on human Lck enzyme, 33 nM.

These data come from patent US10479780B2, “Aminopyrazole derivatives” (Chugai Seiyaku Kabushiki Kaisha, priority 2015, dated 2019).
